Consider two molecules from US5945450A, “Naphthalene derivative” (Teijin Limited, priority 1994, dated 1999).

Read-outs that look alike come from different tables or passages of the source.

Assay [1] has as its system IgM. The experiment in a line: In vivo inhibition of IgM production in TNP-KLH immunized mice. The conditions noted are these: 100 mg/kg/day subcutaneously, twice a day for 10 days, N=10. The arrangement: species or system BDF1 mice. On the procedure:
TNP-KLH (trinitrophenyl-keyhole-lymphet-hemocyanin) was prepared by the method as described in J. Immunol., 97:421-430, 1966 from KLH and trinitrobenzene sulfonic acid. A […] of TNP-KLH suspended in 0.2 ml of saline and 1 mg of aluminum hydroxide gel were injected into the peritoneal cavity of BDF1 mice (8 weeks old) for immunization. From the day of immunization onward, the compound of this invention listed in Table 5 was given subcutaneously to the same animal twice a day for 10 days (100 mg/kg/day, dissolved in 0.5% Tween 80 in saline, and N=10). To the control group, 0.5% Tween 80 in saline was given at the same time schedule (N=10). Ten days after immunization, blood was extracted from the heart, and the concentrations of IgE, IgG1 and IgM antibodies were determined by ELISA (Immunol. Lett., 23:251-256, 1990, and Eur. J. Immunol., 20:2499-2503, 1990). Inhibition (%) of the antibody production with respect to the control was calculated.

The subject of assay [2] is human IgG antibodies. Kind of assay: In vitro inhibition of human IgG antibody production (lymphocytes + IL-4 + anti CD40Ab + IL-10, ELISA). The conditions noted are these: Lymphocyte. The class given is cell-based. On the procedure: According to the method described in J. Immunol., 146:1836-1842, 1991 and J. Immunol., 147:8-13, 1991, the concentrations of IgE and IgG antibodies were measured by the procedures described below.
Peripheral venous blood was sampled from the healthy person, and submitted to density-gradient centrifugation to isolate lymphocytes. The lymphocytes thus obtained were washed and suspended in a culture medium (RPMI-1640 (provided by Gibco)+10% heat-inactivated FCS (Whittaker)+100 µg/ml streptomycin+100 U/ml penicillin+2mM L-glutamine). The cell suspensions were cultured for 1 week in the presence/absence of the compounds of this invention at the concentrations as described in Tables 3-1 to 3-2 together with human interleukin 4 (IL-4, Genzyme)([…]), anti CD40 antibodies (anti CD40Ab, Biosource, clone B-B20)([…]) and human interleukin 10 (IL-10, Genzyme)([…]). The culture medium was supplied freshly to the cell suspension, and the mixture was further cultured for another week. The supernatant was sampled and the concentrations of IgE and IgG antibodies therein were measured by sandwich ELISA.
The ELISA was based, for the assay of IgE antibodies, on the use of rabbit anti-human IgE() antibodies (ICN) as the primary antibody and biotin-linked anti-human IgE monoclonal antibodies (G7-26, PharMingen) as the secondary antibody. For the assay of IgG antibodies, anti-human IgG monoclonal antibodies (G18-145, PharMingen) and biotin-linked donkey anti-human IgG antibodies (H+L)(Jackson) were used for the primary and secondary antibodies, respectively. For the assay of both IgE and IgG antibodies, Avidin-Biotin-Horse Radish Peroxidase (ABC kit, Vector Lab) and TMB (3,3',5,5'-tetramethylbenzidine) microwell peroxidase substrate system (Kirkegaard & Perry Laboratories Inc.) were used as the enzyme and the substrate, respectively. The assays were made by the use of conventionally known ELISA.
The inhibitory effect (%) of a given compound of this invention on the production of the antibody was calculated with respect to the concentration of the same antibody when the compound was not coexistent (refer to Uejima et al., American Academy of Allergy and Immunology, Proceedings of 1995 Annual Meeting, Program No. 818).
On the technique in general: In an ELISA, binding on a coated surface is turned into a signal by an enzyme label.

For assay [3], the system named is mast cells of the rat. The experiment in a line: Inhibition of histamine release from rat mast cells. It counts as cell-based, rat (SD strain). The conditions noted are these: Mast cell, read-out: Inhibiton of histamine release (%). On the procedure: A 1 ml of anti-DNP-Ascaris (Didets) anti-serum (prepared as described in J. Immunol., 106:1002, 1971) was injected into the peritoneal cavity of 5 SD strain rats of 7 weeks old. Forty eight hours later, the animals were bled to death, and 20 ml of HBSS (Hanks balanced salt solution) was injected into their peritoneal cavity. After about 90 second massaging, the HBSS washing was recovered, and cells released into the peritoneal cavity were collected from the washing. The ascitic cells thus collected were washed once with 0.1% BSA/Tyrode-HEPES, and then resuspended in 0.1% BSA/Tyrode-HEPES to give a suspension with a density of 5×10^6 cells/ml. The cell suspension was incubated at 37° C. for 10 minutes in the presence/absence of a test substance, that is, the compound listed in Table 6.
To the resulting mixture was added a histamine releasing agent (20 μg/ml of DNP-Ascaris (DNP-As) (Didets)+25 μg/ml of phosphatidylserine (PS) or 0.2 μg/ml of calcium ionophore A23187), and the reaction was allowed to proceed at 37° C. for 20 minutes. Then, the cell suspension was centrifuged to obtain supernatant. Histamine released in the supernatant was determined by the fluorescent method (J. Pharmacol. Exp. Ther. 127:182, 1959). Inhibitory effect (%) of a given compound of this invention on histamine release was calculated relative to the histamine release when the compound was not coexistent.

In assay [4] the test system is human basophils. Kind of assay: Inhibition of histamine release from human basophils. The class given is cell-based. Also noted: dose or concentration left out as unconfirmed. On the procedure: To human heparinized peripheral blood was added 1/10 volume of 6% Dextran 500 in saline, and the mixture was allowed to stand at room temperature for 1 hour, to isolate a plasma layer containing leukocytes. The leukocytes were separated by centrifugation, washed with PIPE-A (119 mM NaCl, 5 mM KCl, 25 mM PIPES, 40 mM NaOH, 5.6 mM glucose, and 0.03% human serum albumin), and suspended in PIPES-ACM (PIPES A, 1 mM CaCl2 and 0.4 mM MgCl2) to give a cell suspension of a density of 4×10^6 cells /ml. To this cell suspension was added the compound of this invention listed in Table 7 as a test drug (0.1 M solution of the compound in DMSO was diluted with PIPES-ACM to give a […]), or the cell suspension was left untouched. After 30 second, calcium ionophore A23187 ([…]) was added. The reaction was allowed to proceed at 37 for 45 minutes. The resulting mixture was centrifuged to isolate a supernatant. Histamine release in the supernatant was determined by the fluorescent method. Inhibitory effect (%) of a given compound of this invention on histamine release was calculated relative to the histamine release when the compound was not coexistent(refer to Allergy, 37:313-321, 1988).

Where [5] appears, read: releasing agent DNP-As + PS, 10 μM.
The mark [6] stands for this setting: releasing agent DNP-As + PS, 100 μM.
The mark [7] stands for this setting: releasing agent calcium ionophore A23187, 10 μM.
Setting [8] is: releasing agent calcium ionophore A23187, 100 μM.

Consider `O=C(Nc1ccccc1C(=O)O)c1ccc(Oc2ccc3ccccc3c2)cc1` [Compound No. 1104, 2-(4-(2-naphtyloxy)benzamide)benzoic Acid], for which the “Inhibition of antibody production (%) IgM” value in assay [1] worked out at 56.1%. For the same molecule, in assay [2], the inhibition at 1 µM was -4.7%. Further, the inhibition at 3 µM in assay [2] was -6.2%. Also, the inhibition at 10 µM came out at 20.5% in assay [2], 42.7% in assay [3] (setting [5]) and 75.4% in assay [3] (setting [7]). Also, the inhibition at 100 µM was found to be 84.2% in assay [3] (setting [6]) and 78% in assay [3] (setting [8]). The “Inhibition of histamine release (%)” value in assay [4] worked out at 20.4%.
Consider `O=C(Cc1ccc(Oc2ccc3ccccc3c2)cc1)Nc1ccccc1C(=O)O` [Compound No. 1126, 2-(4-(2-naphtyloxy)phenylacetamide)benzoic acid], for which, in assay [1], the “Inhibition of antibody production (%) IgM” value is given as 70.2%. The inhibition at 1 µM in assay [2] was -5%. Further, the inhibition at 3 µM in assay [2] came out at 35.4%. For the same molecule, the inhibition at 10 µM in assay [2] worked out at 84%; in assay [3] (setting [5]), 25.4%; in assay [3] (setting [7]), 54.2%. Moreover, the inhibition at 100 µM in assay [3] (setting [6]) is 90.2%; in assay [3] (setting [8]), 79.8%. Moreover, the “Inhibition of histamine release (%)” value in assay [4] worked out at 55.8%.
